From patent US6368788B1 (priority 1987, dated 2002)
Several values for one entry are separate records, joined by “and”; a condition that tells them apart may be missing. Equal entries are not always repeated. Where two headings read alike, the source gives them in different places. Marks after values point to notes of the source that are not given here.

Experiments:
[1] = Influenza symptoms and sinusitis (Protocol F); format: in vivo, human
Description: Summary Overview: Fifty-one patients (51) were treated daily for 3-10 days with either 100 μg L-Glu-L-Trp administered im, or 1 μg/kg administered intranasally. A control group of 24 similar patients remained untreated.

Staphylococci [2] = assay: Antibiotic sensitivity (doubling-dilution, MIC-2000) of patient isolates before and after Stage 1; format: cell-based
Description: Antibiotics were administered according to established dosages and routes: i.e., penicillin, Ampicillin, oxacillin, tetracycline, erythromycin, garamycin; administered by intramuscular route. Antibiotics were chosen according to the antibiotic sensitivity of the Staphylococci isolated from the respective patients. (Antibiotic sensitivity was determined by testing staphylococcal isolates for their sensitivity in an antibiotic sensitivity doubling-dilution assay with the aid of the semi-automatic MIC-2000 system, Dynatech, USA).
Staphylococci were isolated from patients before and after treatment in Stage 1 with L-Glu-L-Trp in order to determine whether a favorable reversal of T-lymphocyte immunodeficiency might lead to a change in the antibiotic sensitivity. The isolated bacterial colonies following Stage I were typed as follows: namely, in 16 patients S. aureus, in 34, S. epidermidis, in 2 saprophytic Staphylococci. In all cases the same types of Staphylococci were isolated following treatment with L-Glu-L-Trp, but in 4 patients the predominant Staphylococci in the isolates changed from S. aureus to S. epidermidis (n=2), and saprophytic Staphylococci (n=2).
Antibiotic sensitivity of Staphylococci were determined by doubling-dilution methods with the aid of the semiautomatic MIC-2000 system (Dynatech, USA).

[3] = Acute osteomyelitis in adolescents (Protocol D); format: in vivo, human
Description: In 29 adolescents with osteomyelitis, 2 μg/kg L-Glu-L-Trp was administered im daily on each of 3-7 consecutive days, depending upon the severity of the infection. The control group consisted of 13 children who received conventional therapy with antibiotics.

influenza = assay: Volunteers experimentally infected with influenza (Protocol I); conditions: human, in vivo
Description: Thirty-four similarly infected volunteers (34) served as untreated controls. […] The hematological and immunological indices examined immediately following the period of treatment were restored to within the normal range.

Dengue virus = assay: Dengue Protocol B; set-up: species or system human; conditions: in vivo
Description: Sixty Dengue virus infected patients (60) were entered into the trial; 36 were treated with L-Glu-L-Trp and 24 were treated using conventional therapy (i.e., controls).

neutrophils = assay: Neutrophil response to proteose peptone and phagocytic activity in CBA mice; format: in vivo; conditions: for Phagocytes (%) / Phagocytic Index: induced neutrophils; for Total Number of Cells Induced: neutrophil response to proteose peptone
Gingivitis = assay: Gingivitis; set-up: species or system human; conditions: in vivo
Description: Patients were treated for gingival disease by subcutaneous administration of L-Glu-L-Trp into the area of the gingiva. […] Approximately 160 patients were studied, 80 patients were treated with L-Glu-L-Trp and an equal number were treated using conventional therapy (control). […] Normalization of immunologic indices and coagulation in the L-Glu-L-Trp treated patients was correlated with favorable clinical outcome.

cAMP and cGMP = assay: Splenic lymphocyte cAMP and cGMP, normal, sensitized and anaphylactic animals; format: in vivo, guinea pigs; conditions: for cAMP / cAMP/cGMP / cGMP: splenic lymphocytes, 10 μg/kg
Description: Normal guinea pigs (10/group) were treated with 10 μg/kg L-Glu-L-Trp daily on each of five consecutive days and then spleens were removed, lymphocytes isolated, and cyclic AMP and GMP levels determined. To evaluate the effects of L-Glu-L-Trp on immune cells in the face of an ongoing anaphylactic response, splenic lymphocytes were isolated from guinea pigs sensitized for anaphylaxis, or following induction of anaphylactic shock.

Staphylococci [4] = system: Staphylococci
[5] = sensitized + anaphylaxis (Group 5)
[6] = sensitized guinea pigs (Group 3)
[7] = Following Stage 2, Abscess and indurative acne
[8] = Following Stage 2, Chronic abscess pyoderma
[9] = Following Stage 2, Papular-pustular acne

## L-Glu-L-Trp
[1]; in vivo
  Clinical outcome: reduced nasal mucous swelling, normalization of breathing
[1]; vs control group
  Decrease of total duration of patient treatment: up to 1.7 fold
Staphylococci [2]; conclusion of Stage 1
  Patients with decreased MIC of antibiotic for isolated bacteria: 78%
Staphylococci [2]; in certain cases
  Increase in antibiotic sensitivity of isolates: > 100 fold
[3]; 1 of 29
  Failure rate (wounds failed to heal): 3%
[3]; in vivo
  T-cell counts: nearly doubled
  Wounds closed with healing earlier than control group: 2 to 3 days
[3]; on the average
  Fevers resolved sooner: 1 to 2 days
influenza
  Clinical outcome: normalization of fever, reduction in toxic symptoms
Dengue virus
  Clinical outcome: reduction of fever, more rapid reduction of toxic symptoms
neutrophils; 0.01 mg/kg
  Exudate cell concentration: 0.9×10^6
  Neutrophil migration and phagocytic activity: did not appear to stimulate neutrophil migration
neutrophils; 1 mg/kg, six day ip pretreatment
  Increase in percentage of phagocytic cells: 1.5 fold and 1.7 fold
neutrophils; 0.1 mg/kg (so in the source)
  Phagocytes (%): 17.8 ± 1.13%
  Phagocytic Index: 1.90 ± 0.05 No. bacteria/phagocyte
neutrophils; 1 mg/kg
  Phagocytes (%): 31.5 ± 0.4 %
  Phagocytic Index: 1.89 ± 0.03 No. bacteria/phagocyte
neutrophils; ip pretreatment (0.1 mg/kg)
  Number of neutrophils induced by proteose peptone: doubled
neutrophils; 0.01 mg/kg ip pretreatment
  Total Number of Cells Induced: 50 ×10^6
neutrophils; 1 mg/kg ip pretreatment
  Total Number of Cells Induced: 80* ×10^6
neutrophils; treated mice, sterile inflammatory agent
  Neutrophils, Phagocytic Index: ns
Gingivitis
  Clinical outcome: arrest of gingival disease
cAMP and cGMP; sensitized and anaphylactic animals
  cAMP and cGMP levels: significantly elevated the levels of cAMP and cGMP
cAMP and cGMP; [5]
  cAMP: 210 ± 30 pmole/10^7 cells
  cAMP/cGMP: 26 ± 3
  cGMP: 7.9 ± 0.5 pmole/10^7 cells
cAMP and cGMP; [6]
  cAMP: 250 ± 30 pmole/10^7 cells
  cAMP/cGMP: 22 ± 2
  cGMP: 11.2 ± 0.9 pmole/10^7 cells
Staphylococci [4]; After L-Glu-L-Trp Therapy
  Blast Transformation, Con-A: 58.3 ± 3.9%
  Blast Transformation, HSA: 84.9 ± 5.5%
  Blast Transformation, PHA: 40.2 ± 3.9%
Staphylococci [4]; [7]
  Number of Patients with Clinical Result: Improved: 1
  Number of Patients with Clinical Result: Recovered: 4
  Number of Patients with Clinical Result: Significantly Improved: 1
Staphylococci [4]; [8]
  Number of Patients with Clinical Result: Recovered: 5
  Number of Patients with Clinical Result: Significantly Improved: 2
Staphylococci [4]; Following Stage 2, Chronic furunculitis
  Number of Patients with Clinical Result: Recovered: 10
Staphylococci [4]; Following Stage 2, Chronic relapsing folliculitis gravis
  Number of Patients with Clinical Result: Recovered: 1
Staphylococci [4]; Following Stage 2, Chronic relapsing osteofolliculitis
  Number of Patients with Clinical Result: Recovered: 3
Staphylococci [4]; Following Stage 2, Chronic ulcerative pyoderma
  Number of Patients with Clinical Result: Significantly Improved: 2
Staphylococci [4]; [9]
  Number of Patients with Clinical Result: Recovered: 4
  Number of Patients with Clinical Result: Significantly Improved: 3
Staphylococci [4]; Following Stage 2, Totals
  Number of Patients with Clinical Result: Improved: 1
  Number of Patients with Clinical Result: No Effect: 0
  Number of Patients with Clinical Result: Recovered: 27
  Number of Patients with Clinical Result: Significantly Improved: 8
  Number of Patients with Clinical Result: Worse: 0
Staphylococci [4]; L-Glu-L-Trp Treatment (n = 36)
  B-Lymphocytes: 0.28 ± 0.04 ×10^9/L
  B-Lymphocytes % Normal Value: (57%)
  B-Lymphocytes (%): 12.1 ± 1.5%
  C3: 0.77 ± 0.02 g/L
  C3, % Normal Value: (92%)
  Erythrocyte Sed. Rate: 1.2 ± 1.4 mm
  IgA: 2.40 ± 0.18 g/L
  IgA % Normal Value: (126%)
  IgG: 15.5 ± 0.73 g/L
  IgG % Normal Value: (135%)
  IgM: 1.25 ± 0.12 g/L
  IgM % Normal Value: (109%)
  Imm. Cmplx.: 45.9 ± 4.9 Units
  Leukocytes: 7.75 ± 0.33 ×10^9/L
  Leukocytes % Normal Value: (115%)
  Lymphocytes: 2.41 ± 0.14 ×10^9/L
  Lymphocytes % Normal Value: (120%)
  Lymphocytes, %: 30.8 ± 1.4%
  Monocytes: 0.43 ± 0.04 ×10^9/L
  Monocytes, %: 5.65 ± 0.40%
  Monocytes, % Normal Value: (78%)
  NK activity: 45.18 ± 2.55 % cytotox.
  Neutrophils: 4.54 ± 0.25 10^9/L
  Neutrophils, %: 59.8 ± 1.5%
  Neutrophils, % Normal Value: (103%)
  Phag. Index: 5.31 ± 0.20
  Phagocytic Cells: 2.36 ± 0.27 ×10^9/L
  Phagocytic Cells, % Normal Value: (89%)
  Surface Ig + B-Lym: 0.34 ± 0.05 ×10^9/L
  Surface Ig + B-Lym, %: 16.9 ± 1.7%
  Surface Ig + B-Lym, % Normal Value: (117%)
  T4^+/T8^+ Ratio: 1.32 ± 0.11
  T-Lymphocytes: 1.68 ± 0.12 ×10^9/L
  T-Lymphocytes % Normal Value: (99%)
  T-Lymphocytes (%): 69.3 ± 1.9 %
  T-helper % Normal Value: (71%)
  T-helper (OKT4+): 0.46 ± 0.05 ×10^9/L
  T-helper (OKT4+) %: 20.3 ± 2.9%
  T-suppressor % Normal Value: (95%)
  T-suppressor (OKT8+): 0.39 ± 0.04 ×10^9/L
  T-suppressor (OKT8+) %: 17.1 ± 1.9%
Staphylococci [4]; after treatment
  T-lymphocytes, T4+ lymphocytes, T4+/T8+ ratio and NK activity relative to normal healthy volunteers: > 70%
Staphylococci [4]; combination therapy
  Patients with considerable (significant) improvement: 8
  Patients with improvement: 1
Staphylococci [4]; combination therapy, 36 patients
  Patients with clinical (complete) recovery: 27
Staphylococci [4]; following Stage 2
  Surface IgG+ lymphocytes: 0.19±0.023 ×10^9/L
Staphylococci [4]; in vivo
  Patients with clinically manifested increased antibiotic sensitivity in vivo: 55-75%
Staphylococci [4]; of 7 patients
  Clinical recovery, papulous pustular acne: 4
  Complete clinical recovery, chronic abscessing pyoderma: 5
Staphylococci [4]; of 10 patients
  Clinical recovery, abscessing and indurative acne: 6
